Data: patent publication US10006009B2, “Codon-optimized gene for mutated shrimp luciferase and method for use thereof” (JNC CORPORATION, priority 2013, dated 2018)
“Also recorded” adds a separate entry of the source.

How the values were obtained:
Type in all cases: biochemical
[1] = molecular target: T1, codon-optimized nanoKAZ domain protein (Oplophorus gracilirostris, UniProt Q9GV45, A31E/A60N/A81I/F95D/I117V/K70R/L54V/L99Q/M102K/N193R/P142E/Q151K/Q38R/Q45L/V71I/Y165I); test: Substrate specificity and luminescence pattern of nanoKAZ secreted into culture medium; details: for luminescence pattern: FIG. 4; for Relative luminescence activity integrated (1 min) / Relative maximum luminescence intensity (Imax): culture medium with secreted nanoKAZ as enzyme, coelenterazine = 1.0
T1 construct: expressed in transfected cells; host or cells: CHO-K1, HeLa or COS-1 cells transfected with pcDNA3-nanoKAZ or pcDNA3-GLsp-nanoKAZ
Description: The luminescence reaction was started by addition of 5 μL of the enzyme solution for assay obtained in EXAMPLE 3 to 100 μL of 50 mM Tris-HCl (pH 7.6)-10 mM EDTA (Wako Pure Chemical Industries, Ltd.) containing 0.5 μg of coelenterazine (manufactured by JNC Corp.). The luminescence activity was measured for 60 seconds with a luminometer (manufactured by Atto Co.: AB2200). The maximum intensity of luminescence (Imax) and the luminescence activity integrated for 60 seconds were represented as relative light units (rlu). On the other hand, the luminescence activity of firefly luciferase was used as an internal standard to confirm the efficiency of transfection. Five microliters of the enzyme solution for assay obtained in EXAMPLE 3 was added to 100 μL of the enzyme assay solution (manufactured by Promega Corp.) to start the luminescence reaction. The luminescence activity was measured with a luminometer (manufactured by Atto Co.: AB2200) by integration of luminescence for 10 seconds, which was shown as relative light units (rlu). […] While the transfection efficiencies vary in depending upon cell types, the transfection efficiencies of pcDNA3-nanoKAZ and pcDNA3-GLsp-nanoKAZ are almost the same. The results obtained by measuring the luminescence activity of CHO-K1 cells, HeLa cells and COS-1 cells in culture medium and cells are shown in TABLE 4. Evidently, pcDNA3-nanoKAZ without a signal peptide sequence for secretion was secreted comparably or more efficiently than pcDNA3-GLsp-nanoKAZ.
Coelenterazine analogues used in the substrate specificity experiments were synthesized by the methods described in the respective papers. More specifically, bis-coelenterazine, furimazine and C2-coelenterazine analogue were synthesized by the methods described in Nakamura et al. (1997) Tetrahedron Lett. 38:6405-6406, Hall et al. (2012) ACS Chem. Biol. […] and Inouye et al. (2010) Anal. Biochem. 407: 247-252, respectively. Using as an enzyme solution for coelenterazine or its analogues the culture medium, into which nanoKAZ was secreted as described in EXAMPLE 4, the luminescence activity was measured. Among coelenterazine analogues, the relative maximum intensity of luminescence for h-, bis-, 3me- and 3meo-coelenterazines was at least 10-fold higher and the relative luminescence activity integrated for 1 minute of h- and bis-coelenterazines was at least 10-fold higher, than the others. These luminescence patterns are illustrated in FIG. 4.

[2] = molecular target: T2, purified codon-optimized nanoKAZ domain protein (Oplophorus gracilirostris, UniProt Q9GV45, A31E/A60N/A81I/F95D/I117V/K70R/L54V/L99Q/M102K/N193R/P142E/Q151K/Q38R/Q45L/V71I/Y165I); test: Substrate specificity of purified nanoKAZ; details: purified nanoKAZ 0.03 μg, 1 μg substrate, coelenterazine = 1.0
T2 construct: histidine tag (6 His) (N, cleaved yes); ZZ domain (N, cleaved yes); made in house; host or cells: Escherichia coli BL21
Description: The luminescence reaction was started by addition of 5 μl (0.03 μg) of the purified enzyme solution obtained in EXAMPLE 7 to 100 μl of 50 mM Tris-HCl (pH 7.6)-10 mM EDTA (Wako Pure Chemical Industries, Ltd.) containing 1 μg of coelenterazine (manufactured by JNC) or its analogues. The luminescence activity was measured with a luminometer (manufactured by Atto Co.: AB2200) for 60 seconds. The maximum intensity of luminescence (Imax) and the level integrated for 60 seconds were represented as relative light units (rlu).
The luminescence activity of the purified codon-optimized nanoKAZ domain was measured in accordance with the method described in EXAMPLE 8. […] The results obtained using the purified codon-optimized nanoKAZ as the enzyme solution are in good agreement with the results found by using the culture cell solution as the enzyme solution.

[3] = molecular target: T3, purified nanoKAZ (Oplophorus gracilirostris, UniProt Q9GV45, A31E/A60N/A81I/F95D/I117V/K70R/L54V/L99Q/M102K/N193R/P142E/Q151K/Q38R/Q45L/V71I/Y165I); test: Emission spectra by purified nanoKAZ using coelenterazine analogues; details: purified nanoKAZ 3 μg, substrate 5 μg, 22-25° C.
T3 construct: histidine tag (6 His) (N, cleaved yes); ZZ domain (N, cleaved yes); made in house; host or cells: Escherichia coli BL21
Description: The luminescence reaction was started by addition of a solution of substrate coelenterazine (5 μg/5 μL) in ethanol to a solution of nanoKAZ (3 μg) in 30 mM Tris-HCl (pH 7.6) containing 500 μl of 10 mM EDTA. The luminescence spectra were measured in a quartz cell with an optical path length of 10 mm, with a fluorescence spectrophotometer (manufactured by JASCO Corp., FP-6500) with the excitation light source turned off to correct for the spectra. The measurement conditions used were as follows: band width: 20 nm, response: 0.5 second, scan speed: 2000 nm/min at 22-25° C. The maximum intensity of luminescence (λmax, nm) and half bandwidth (nm) were determined from the luminescence spectra measured, which are summarized in TABLE 8.

T3 sequence (Q9GV45 other isoform, or with tags, fused parts or gaps with the stated changes): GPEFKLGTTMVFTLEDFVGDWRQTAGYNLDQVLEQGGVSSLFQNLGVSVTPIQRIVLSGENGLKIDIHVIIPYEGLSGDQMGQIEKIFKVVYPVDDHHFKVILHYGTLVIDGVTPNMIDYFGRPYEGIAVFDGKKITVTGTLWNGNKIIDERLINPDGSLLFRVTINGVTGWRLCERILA
T2 sequence (Q9GV45 other isoform, or with tags, fused parts or gaps with the stated changes): as above
T1 sequence (Q9GV45 28-196 with tags or gaps with the stated changes limits assumed): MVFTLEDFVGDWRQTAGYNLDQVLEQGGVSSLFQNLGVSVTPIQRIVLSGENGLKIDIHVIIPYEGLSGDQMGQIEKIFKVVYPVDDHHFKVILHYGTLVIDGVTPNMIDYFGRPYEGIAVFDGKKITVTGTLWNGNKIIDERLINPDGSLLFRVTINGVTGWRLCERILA

Row | Molecule | luminescence pattern [1] | Relative luminescence activity integrated (1 min) [1] | Relative maximum luminescence intensity (Imax) [1] | activity relative to furimazine ([1]; higher than that of furimazine) | Maximum luminescence intensity (Imax) [2] | Relative luminescence activity integrated (1 min) [2] | Half bandwidth FWHM [3] | Maximum wavelength λmax [3]
1 | bis-Coelenterazine | did not show the rapid-decay luminescence patterns; also recorded: continuous emission without decay of luminescence | 11.5 | 10.8 | at least 2 fold | 13.5 | 10.1 | 73 nm | 453 nm
2 | i-Coelenterazine | – | 2.0 | 3.3 | – | 2.9 | 0.8 | 73 nm | 457 nm
3 | Cc1ccc(Cc2nc3c(Cc4ccccc4)[nH]c(-c4ccc(O)cc4)cn-3c2=O)cc1 [me-Coelenterazine] | – | 3.0 | 5.2 | – | 4.2 | 1.3 | 75 nm | 460 nm
4 | O=c1c(Cc2ccc(C(F)(F)F)cc2)nc2c(Cc3ccccc3)[nH]c(-c3ccc(O)cc3)cn1-2 [cf3-Coelenterazine] | – | 2.4 | 5.2 | – | 4.7 | 1.4 | 71 nm | 454 nm
5 | et-Coelenterazine | – | 2.8 | 4.4 | – | 2.4 | 0.5 | 75 nm | 458 nm
6 | O=c1c(Cc2cccc(O)c2)nc2c(Cc3ccccc3)[nH]c(-c3ccc(O)cc3)cn1-2 [3iso-Coelenterazine] | did not show the rapid-decay luminescence patterns | 1.4 | 1.5 | – | 1.1 | 0.9 | 75 nm | 460 nm
7 | O=c1c(Cc2ccco2)nc2c(Cc3ccccc3)[nH]c(-c3ccccc3)cn1-2 [Furimazine] | did not show the rapid-decay luminescence patterns | 5.3 | 4.8 | – | 6.8 | 5.5 | 73 nm | 452 nm
8 | n-Coelenterazine | – | 3.3 | 4.9 | – | 4.1 | 1.2 | 71 nm | 454 nm
9 | COc1cccc(Cc2nc3c(Cc4ccccc4)[nH]c(-c4ccc(O)cc4)cn-3c2=O)c1 [3meo-Coelenterazine] | – | 8.2 | 11.6 | – | 11.1 | 6.6 | 71 nm | 458 nm
10 | COc1ccc(Cc2nc3c(Cc4ccccc4)[nH]c(-c4ccc(O)cc4)cn-3c2=O)cc1 [meo-Coelenterazine] | – | 6.3 | 8.9 | – | 7.7 | 3.4 | 73 nm | 458 nm
11 | αmeh-Coelenterazine | – | 0.1 | 0.1 | – | 0.1 | 0.1 | 73 nm | 462 nm
12 | Oc1ccc(-c2cn3c(O)c(Cc4ccccc4)nc3c(Cc3ccccc3)n2)cc1 [h-Coelenterazine] | – | 11.1 | 17.1 | – | 19.7 | 12.5 | 71 nm | 455 nm
13 | Oc1ccc(Cc2nc3c(Cc4ccccc4)nc(-c4ccc(O)cc4)cn3c2O)cc1 [Coelenterazine (CTZ), Coelenterazine] | – | 1.0 | 1.0 | – | 1.0 | 1.0 | 73 nm | 457 nm
14 | Cc1cccc(Cc2nc3c(Cc4ccccc4)[nH]c(-c4ccc(O)cc4)cn-3c2=O)c1 [3me-Coelenterazine] | – | 7.9 | 11.5 | – | 10.3 | 4.2 | 73 nm | 458 nm
